Legend:
[1] = target: T1, WKV557-559 deletion/C557insertion/D820A (Homo sapiens, UniProt P10721, D820A/DEL557-558/V559C); test: CHO K1 phospho-KIT ELISA; format: cell-based; settings: transient transfected CHO K1 cells, phospho-c-KIT (Tyr719), read-out: KIT kinase domain mutations (primary/secondary): WKV557-559 deletion
T1 construct: V5 (vector-encoded); expressed in transfected cells; host or cells: CHO K1
Experimental: (§2) CHO K1 cells (catalog #CCL-61) were obtained from the American Type Culture Collection, Manassas, VA. […] Cells were allowed to expand until reaching 70-95% confluency at which point they were subcultured or harvested for assay use.
(§3) Cells were then incubated overnight at 37°C, 5% CO2, 95% RH. Transfection-grade pcDNA3.2 V5 DEST expression vector containing KIT variant, Lipofectamine LTX Reagent, and PLUS reagent (Invitrogen, Carlsbad, CA) were diluted into Opti-MEM® I medium (Invitrogen, Carlsbad, CA). The tube was incubated at room temperature to allow formation of DNA-Lipofectamine LTX complexes. The DNA-lipofectamine LTX complex mix was added directly to each well and mixed gently. Eighteen hours post-transfection, medium was replaced with serum-free RPMI medium. A serial dilution of test compound was added, and plates were incubated for 4 hours at 37°C, 5% CO2, 95% RH. Cell lysates were prepared, then phospho-c-KIT (Tyr719) was measured by using a Human phospho-c-KIT ELISA kit (Cell Signaling, Beverly, MA). Data was analyzed using Prism software (Graphpad, San Diego, CA) to calculate IC50 values.

[2] = test system: GIST430 cells; test: GIST 430 Cell Proliferation Assay; format: cell-based; settings: Homo sapiens, 120 h, 115 hours + 5 hours resazurin
Experimental: GIST48, GIST430, and GIST882 cells were obtained from J. Fletcher (Brigham and Women's Hospital, Boston, MA). GIST T1 cells were obtained from B. Rubin (Cleveland Clinic, Cleveland, OH) and Professor Takahiro Taguchi (Kochi Medical School, Nankoku, Kochi, Japan). Briefly, GIST48 and GIST 882 cells were grown in RPMI 1640 medium supplemented with 15% characterized fetal bovine serum (Invitrogen, Carlsbad, CA), 1 unit/mL penicillin G, 1 µg/ml streptomycin, and 0.29 mg/mL L-glutamine at 37 °C, 5% CO2, and 95% humidity. GIST430 cells were grown in Ham's F10 medium supplemented with 15% characterized fetal bovine serum (Invitrogen, Carlsbad, CA), 30 mg/L bovine pituitary extract (BD Biosciences, San Jose, CA), 0.5% Mito+ serum extender (BD Biosciences, San Jose, CA), 1 unit/mL penicillin G, 1 µg/ml streptomycin, and 0.29 mg/mL L-glutamine at 37 °C, 5%CO2, 95% humidity. GIST T1 cells were grown in DMEM medium supplemented with 10% characterized fetal bovine serum (Invitrogen, Carlsbad, CA), 1 unit/mL penicillin G, 1 µg/ml streptomycin, and 0.29 mg/mL L-glutamine at 37 °C, 5% CO2, and 95% humidity.
A serial dilution of test compound was dispensed into a 384-well black clear bottom plate (Corning, Corning, NY). Two thousand five-hundred cells were added per well in 50 µL complete growth medium. Plates were incubated for 115 hours at 37°C, 5% CO2, 95% humidity. At the end of the incubation period 10 µL of a 440 µM solution of resazurin (Sigma, St. Louis, MO) in PBS was added to each well and incubated for an additional 5 hours at 37°C, 5% CO2, 95% humidity. Plates were read on a Synergy2 reader (Biotek, Winooski, VT) using an excitation of 540 nm and an emission of 600 nm.

[3] = target: T2, c-KIT VVDV kinase (Homo sapiens, UniProt P10721, D816V/DEL559-560); test: cKIT-VVDV kinase Assay; format: biochemical; settings: enzymatic assay; V559+V560 deletions and D816V mutation
T2 construct: This construct contains residues T544-V976 of cKit; GST (N); TEV cleavage site (internal); purchased deCODE Biostructures
T2 sequence (P10721 with tags, fused parts or gaps DEL559-560/D816V): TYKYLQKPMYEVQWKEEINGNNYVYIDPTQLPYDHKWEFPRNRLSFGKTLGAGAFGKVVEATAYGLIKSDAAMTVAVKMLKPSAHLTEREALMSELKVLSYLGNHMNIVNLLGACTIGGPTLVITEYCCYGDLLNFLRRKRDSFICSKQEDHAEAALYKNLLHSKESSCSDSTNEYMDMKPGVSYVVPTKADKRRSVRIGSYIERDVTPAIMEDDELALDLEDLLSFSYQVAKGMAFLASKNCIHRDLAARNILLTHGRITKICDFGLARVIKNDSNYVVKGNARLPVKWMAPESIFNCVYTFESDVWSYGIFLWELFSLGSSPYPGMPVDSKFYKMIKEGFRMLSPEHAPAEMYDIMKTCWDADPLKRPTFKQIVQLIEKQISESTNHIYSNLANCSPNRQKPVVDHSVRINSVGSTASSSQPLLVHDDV
Procedure, shortened: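 Coupled spectrophotometric format: kinase activity followed as NADH oxidation, loss of absorbance at 340 nm. Serially diluted compound mixed with the reaction mixture to start; read continuously for 5 h at 30 °C.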

[4] = target: T3, AY502 duplication/D816G KIT (Homo sapiens, UniProt P10721, D816G/DUP502-503); test: CHO K1 phospho-KIT ELISA; format: cell-based; settings: transient transfected CHO K1 cells, phospho-c-KIT (Tyr719), read-out: KIT kinase domain mutations (primary/secondary): AY502 duplication / D816G
T3 construct: V5 (vector-encoded); expressed in transfected cells; host or cells: CHO K1
T3 sequence (P10721 with tags, fused parts or gaps DUP502-503/D816G): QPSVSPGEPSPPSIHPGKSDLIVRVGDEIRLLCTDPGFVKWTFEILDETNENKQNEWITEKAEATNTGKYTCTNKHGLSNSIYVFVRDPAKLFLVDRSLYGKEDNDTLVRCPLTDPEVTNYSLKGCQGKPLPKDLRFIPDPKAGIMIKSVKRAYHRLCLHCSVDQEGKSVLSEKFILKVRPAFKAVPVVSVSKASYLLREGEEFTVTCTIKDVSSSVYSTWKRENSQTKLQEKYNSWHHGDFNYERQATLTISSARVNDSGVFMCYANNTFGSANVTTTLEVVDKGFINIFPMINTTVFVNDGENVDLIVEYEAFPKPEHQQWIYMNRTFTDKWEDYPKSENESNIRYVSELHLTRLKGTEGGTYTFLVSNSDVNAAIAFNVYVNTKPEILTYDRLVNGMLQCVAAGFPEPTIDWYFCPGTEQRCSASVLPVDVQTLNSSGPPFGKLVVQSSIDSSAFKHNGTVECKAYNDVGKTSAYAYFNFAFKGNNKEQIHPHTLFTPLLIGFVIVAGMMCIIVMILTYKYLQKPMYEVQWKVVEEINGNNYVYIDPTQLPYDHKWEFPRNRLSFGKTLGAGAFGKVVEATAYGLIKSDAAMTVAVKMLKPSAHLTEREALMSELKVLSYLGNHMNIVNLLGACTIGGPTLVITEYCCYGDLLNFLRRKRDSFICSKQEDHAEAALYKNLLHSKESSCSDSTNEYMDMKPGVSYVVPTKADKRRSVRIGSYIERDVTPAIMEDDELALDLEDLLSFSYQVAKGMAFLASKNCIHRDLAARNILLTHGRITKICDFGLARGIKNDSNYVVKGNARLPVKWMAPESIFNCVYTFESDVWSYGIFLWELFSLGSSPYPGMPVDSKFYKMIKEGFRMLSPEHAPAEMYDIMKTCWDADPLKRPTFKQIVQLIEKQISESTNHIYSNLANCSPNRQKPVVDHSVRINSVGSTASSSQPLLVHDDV
Experimental: as §2, §3

[5] = target: T4, D816V KIT (Homo sapiens, UniProt P10721, D816V); test: CHO K1 phospho-KIT Western; format: cell-based; settings: transient transfected CHO K1 cells, phospho-KIT (Tyr719), read-out: KIT kinase domain mutations (primary/secondary): D816V
T4 construct: V5 (vector-encoded); expressed in transfected cells; host or cells: CHO K1
T4 sequence (P10721 26-976 D816V): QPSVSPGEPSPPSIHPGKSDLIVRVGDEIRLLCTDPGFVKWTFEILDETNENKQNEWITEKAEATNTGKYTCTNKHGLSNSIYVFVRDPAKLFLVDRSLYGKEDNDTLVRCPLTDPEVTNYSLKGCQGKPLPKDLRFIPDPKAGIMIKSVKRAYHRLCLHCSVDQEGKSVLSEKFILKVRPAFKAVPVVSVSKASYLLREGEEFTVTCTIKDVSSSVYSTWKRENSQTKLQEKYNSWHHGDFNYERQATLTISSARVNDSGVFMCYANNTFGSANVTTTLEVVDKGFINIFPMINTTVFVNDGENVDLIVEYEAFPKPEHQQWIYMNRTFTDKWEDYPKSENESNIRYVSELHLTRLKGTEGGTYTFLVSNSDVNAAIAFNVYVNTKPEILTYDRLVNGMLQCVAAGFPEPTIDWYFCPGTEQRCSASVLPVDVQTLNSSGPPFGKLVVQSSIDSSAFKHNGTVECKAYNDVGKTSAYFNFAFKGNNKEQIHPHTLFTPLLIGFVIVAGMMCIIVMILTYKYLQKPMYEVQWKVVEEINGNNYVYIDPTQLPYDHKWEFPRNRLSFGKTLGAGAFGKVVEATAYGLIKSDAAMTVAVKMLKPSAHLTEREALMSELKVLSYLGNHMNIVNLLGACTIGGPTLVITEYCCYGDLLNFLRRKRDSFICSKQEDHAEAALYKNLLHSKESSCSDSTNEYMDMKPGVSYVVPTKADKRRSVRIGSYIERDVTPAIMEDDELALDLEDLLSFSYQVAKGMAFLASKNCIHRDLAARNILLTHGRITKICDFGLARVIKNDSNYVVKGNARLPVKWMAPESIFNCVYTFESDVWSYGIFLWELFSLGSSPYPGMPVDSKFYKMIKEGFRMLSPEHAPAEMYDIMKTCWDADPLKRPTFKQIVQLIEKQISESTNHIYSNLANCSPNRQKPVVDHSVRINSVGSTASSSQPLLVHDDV
Experimental: (§1) Cells were washed with PBS, then lysed. Cell lysates were separated by SDS-PAGE and transferred to PVDF. Phospho-KIT (Tyr719) was detected using an antibody from Cell Signaling Technology (Beverly, MA), ECL Plus detection reagent (GE Healthcare, Piscataway, NJ) and a Molecular Devices Storm 840 phosphorimager in fluorescence mode. Blots were stripped and probed for total KIT using an antibody from Santa Cruz Biotech (Santa Cruz, CA). IC50 values were calculated using Prism software (Graphpad, San Diego, CA).

[6] = target: T5, VV559-560 deletion/D816V KIT (Homo sapiens, UniProt P10721, D816V/DEL559-560); test: CHO K1 phospho-KIT Western; format: cell-based; settings: transient transfected CHO K1 cells, phospho-KIT (Tyr719), read-out: KIT kinase domain mutations (primary/secondary): VV559-560 deletion / D816V
T5 construct: expressed in transfected cells; host or cells: CHO K1
T5 sequence (P10721 with tags, fused parts or gaps DEL559-560/D816V): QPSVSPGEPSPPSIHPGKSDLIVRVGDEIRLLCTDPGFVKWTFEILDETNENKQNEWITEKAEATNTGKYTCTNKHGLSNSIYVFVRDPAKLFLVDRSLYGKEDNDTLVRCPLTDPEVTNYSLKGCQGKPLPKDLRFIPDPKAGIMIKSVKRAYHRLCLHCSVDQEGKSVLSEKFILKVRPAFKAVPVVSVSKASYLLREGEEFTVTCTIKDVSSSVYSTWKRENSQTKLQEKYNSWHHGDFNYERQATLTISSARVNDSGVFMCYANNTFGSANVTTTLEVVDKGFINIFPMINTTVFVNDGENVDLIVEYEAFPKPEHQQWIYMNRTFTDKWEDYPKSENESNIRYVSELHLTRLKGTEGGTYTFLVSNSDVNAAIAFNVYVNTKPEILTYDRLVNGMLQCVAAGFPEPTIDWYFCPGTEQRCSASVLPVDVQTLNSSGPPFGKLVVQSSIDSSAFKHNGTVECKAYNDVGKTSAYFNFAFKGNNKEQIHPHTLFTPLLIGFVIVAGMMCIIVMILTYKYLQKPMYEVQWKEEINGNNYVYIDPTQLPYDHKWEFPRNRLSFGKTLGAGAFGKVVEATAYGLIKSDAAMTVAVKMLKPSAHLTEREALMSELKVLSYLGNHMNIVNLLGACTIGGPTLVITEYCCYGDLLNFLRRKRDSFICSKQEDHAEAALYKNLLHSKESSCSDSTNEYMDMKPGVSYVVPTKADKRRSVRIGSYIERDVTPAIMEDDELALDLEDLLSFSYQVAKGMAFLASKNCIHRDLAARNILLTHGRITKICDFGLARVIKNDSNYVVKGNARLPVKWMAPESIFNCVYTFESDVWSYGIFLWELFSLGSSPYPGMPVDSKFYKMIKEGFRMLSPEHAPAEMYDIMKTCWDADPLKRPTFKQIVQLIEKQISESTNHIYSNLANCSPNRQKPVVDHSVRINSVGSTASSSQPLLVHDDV
Experimental: as §1

[7] = target: T6, D820A KIT (Homo sapiens, UniProt P10721, D820A); test: CHO K1 phospho-KIT Western; format: cell-based; settings: transient transfected CHO K1 cells, phospho-KIT (Tyr719), read-out: KIT kinase domain mutations (primary/secondary): D820A
T6 construct: V5 (vector-encoded); expressed in transfected cells; host or cells: CHO K1
T6 sequence (P10721 26-976 D820A): as the sequence (P10721 26-976 D816V) above, with V791D, D795A counted along it
Experimental: as §1

[8] = target: T7, V560D/N822K (Homo sapiens, UniProt P10721, N822K/V560D); test: CHO K1 phospho-KIT ELISA; format: cell-based; settings: transient transfected CHO K1 cells, phospho-c-KIT (Tyr719), read-out: KIT kinase domain mutations (primary/secondary): V560D / N822K
T7 construct: V5 (vector-encoded); expressed in transfected cells; host or cells: CHO K1
T7 sequence (P10721 26-976 V560D/N822K): as the sequence (P10721 26-976 D816V) above, with V535D, V791D, N797K counted along it
Experimental: as §2, §3

[9] = target: T8, V560D/Y823D (Homo sapiens, UniProt P10721, V560D/Y823D); test: CHO K1 phospho-KIT ELISA; format: cell-based; settings: transient transfected CHO K1 cells, phospho-c-KIT (Tyr719), read-out: KIT kinase domain mutations (primary/secondary): V560D / Y823D
T8 construct: V5 (vector-encoded); expressed in transfected cells; host or cells: CHO K1
T8 sequence (P10721 26-976 V560D/Y823D): as the sequence (P10721 26-976 D816V) above, with V535D, V791D, Y798D counted along it
Experimental: as §2, §3

T1 sequence (P10721 with tags, fused parts or gaps DEL557-558/V559C/D820A): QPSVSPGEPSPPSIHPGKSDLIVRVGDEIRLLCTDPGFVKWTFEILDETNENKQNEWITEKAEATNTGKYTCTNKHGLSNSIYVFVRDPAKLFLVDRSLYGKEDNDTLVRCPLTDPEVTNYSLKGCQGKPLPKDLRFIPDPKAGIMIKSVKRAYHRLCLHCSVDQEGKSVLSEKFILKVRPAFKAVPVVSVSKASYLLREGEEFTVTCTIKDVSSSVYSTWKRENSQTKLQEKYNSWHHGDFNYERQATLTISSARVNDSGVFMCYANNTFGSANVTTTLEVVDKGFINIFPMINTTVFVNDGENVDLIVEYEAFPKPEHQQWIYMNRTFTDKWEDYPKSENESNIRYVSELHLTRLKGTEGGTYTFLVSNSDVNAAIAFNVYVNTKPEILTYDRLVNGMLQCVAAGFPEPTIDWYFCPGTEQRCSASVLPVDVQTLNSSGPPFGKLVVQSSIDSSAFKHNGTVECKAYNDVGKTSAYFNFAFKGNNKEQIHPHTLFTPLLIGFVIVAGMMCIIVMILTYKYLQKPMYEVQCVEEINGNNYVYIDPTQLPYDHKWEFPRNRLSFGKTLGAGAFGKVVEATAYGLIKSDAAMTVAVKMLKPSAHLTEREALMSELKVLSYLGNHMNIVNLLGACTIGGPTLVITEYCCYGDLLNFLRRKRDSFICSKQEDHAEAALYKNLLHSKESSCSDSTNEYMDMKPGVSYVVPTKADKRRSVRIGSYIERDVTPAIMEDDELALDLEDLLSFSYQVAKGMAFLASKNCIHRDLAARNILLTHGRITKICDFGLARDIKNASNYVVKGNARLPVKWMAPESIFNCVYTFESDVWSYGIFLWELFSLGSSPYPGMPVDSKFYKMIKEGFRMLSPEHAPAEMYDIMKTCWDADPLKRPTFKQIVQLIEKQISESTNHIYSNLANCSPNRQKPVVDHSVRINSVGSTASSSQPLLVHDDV

Row | Structure (SMILES) | IC50 [1] | IC50 [2] | IC50 [3] | IC50 [4] | IC50 [5] | IC50 [6] | IC50 [7] | IC50 [8] | IC50 [9]
1 | CCn1c(=O)c(-c2cc(NC(=O)Nc3ccccc3)c(F)cc2C)cc2cnc(NC)cc21 [Example 23, 1-(5-(1-ethyl-7-(methylamino)-2-oxo-1,2-dihydro-1,6-naphthyridin-3-yl)-2-fluoro-4-methylphenyl)-3-phenylurea] | 10 to 100 nM | 10 to 100 nM | 10 to 100 nM | 10 to 100 nM | > 1000 nM | 100 to 1000 nM | 10 to 100 nM | 10 to 100 nM | < 10 nM
2 | CCn1c(=O)c(-c2cc(NC(=O)Nc3csc4ccccc34)c(F)cc2C)cc2cnc(NC)cc21 [Example 59, 1-(benzo[b]thiophen-3-yl)-3-(5-(1-ethyl-7-(methylamino)-2-oxo-1,2-dihydro-1,6-naphthyridin-3-yl)-2-fluoro-4-methylphenyl)urea] | < 10 nM | – | 10 to 100 nM | – | < 10 nM | 10 to 100 nM | 10 to 100 nM | < 10 nM | < 10 nM
